Reference: patent US8796245B2 (TetraPhase Pharmaceuticals, Inc., priority 2008, dated 2014)
Values after ≈ are worked out from the molar mass of the structure shown.

Legend:
Type in all cases: cell-based
[1] = tested on: S. pneumoniae ATCC 49619 (SP106); assay: Minimum inhibitory concentration assay, SP106; conditions: Streptococcus pneumoniae, ATCC49619; S. pneumoniae ATCC 49619, wt; read-out: MICs SP106
Procedure: (§1) Frozen bacterial strains were thawed and subcultured onto Mueller Hinton Broth (MHB) or other appropriate media (Streptococcus requires blood and Haemophilus requires hemin and NAD). Following incubation overnight, the strains were subcultured onto Mueller Hinton Agar and again incubated overnight. […] Isolated colonies were selected to prepare a starting inoculum equivalent to a 0.5 McFarland standard. The starting inoculum was diluted 1:125 using MHB for further use. Test compounds were prepared by dilution in sterile water to a final concentration of 5.128 mg/mL. Antibiotics (stored frozen, thawed and used within 3 hours of thawing) and compounds were further diluted to the desired working concentrations.
(§2) The assays were run as follows. Fifty μL of MHB was added to wells 2-12 of a 96-well plate. One hundred […] of appropriately diluted antibiotics was added to well 1. Fifty μL of antibiotics was removed from well 1 and added to well 2 and the contents of well 2 mixed by pipetting up and down five times. Fifty μL of the mixture in well 2 was removed and added to well 3 and mixed as above. Serial dilutions were continued in the same manner through well 12. Fifty μL was removed from well 12 so that all contained 50 μL. Fifty μL of the working inoculum was then added to all test wells. A growth control well was prepared by adding 50 μL of working inoculum and 50 μL of MHB to an empty well. The plates were then incubated at 37° C. overnight, removed from the incubator and each well was read on a plate reading mirror. The lowest concentration (MIC) of test compound that inhibited the growth of the bacteria was recorded.

[2] = tested on: S. aureus ATCC 13709 (SA100, MSSA, Smith strain); assay: Minimum inhibitory concentration assay, SA100; conditions: Staphylococcus aureus; S. aureus ATCC 13709, MSSA Smith strain; read-out: MICs SA100
Procedure: as §1, §2

[3] = tested on: K. pneumoniae ATCC 13883 (KP109); assay: Minimum inhibitory concentration assay, KP109; conditions: Klebsiella pneumoniae, ATCC13883; K. pneumoniae ATCC 13883, wt; read-out: MICs KP109
Procedure: as §1, §2

[4] = tested on: E. faecalis EF159 (tet resistant: tetM); assay: Minimum inhibitory concentration assay, EF159; conditions: Enterococcus faecalis, read-out: MICs EF159
Procedure: as §1, §2

[5] = tested on: S. pneumoniae SP160 (tet resistant: tet M); assay: Minimum inhibitory concentration assay, SP160; conditions: Streptococcus pneumoniae, read-out: MICs SP160
Procedure: as §1, §2

[6] = tested on: A. baumanii ATCC 19606 (AB110); assay: Minimum inhibitory concentration assay, AB110; conditions: Acinetobacter baumannii, ATCC19606; A. baumanii ATCC 19606, wt; read-out: MICs AB110
Procedure: as §1, §2

[7] = tested on: P. aeruginosa ATCC 27853 (PA111); assay: Minimum inhibitory concentration assay, PA111; conditions: Pseudomonas aeruginosa, ATCC27853; P. aeruginosa ATCC 27853, wt; read-out: MICs PA111
Procedure: as §1, §2

[8] = tested on: S. aureus ATCC 29213 (SA101, MSSA); assay: Minimum inhibitory concentration assay, SA101; conditions: Staphylococcus aureus; S. aureus ATCC 29213, MSSA control; read-out: MICs SA101
Procedure: as §1, §2

[9] = tested on: S. aureus SA161 (tet resistant: tet(M) ribosomal protection); assay: Minimum inhibitory concentration assay, SA161; conditions: Staphylococcus aureus, read-out: MICs SA161
Procedure: as §1, §2

[10] = tested on: E. coli ATCC 25922 (EC107); assay: Minimum inhibitory concentration assay, EC107; conditions: Escherichia coli, ATCC25922; E. coli ATCC 25922, wt; read-out: MICs EC107
Procedure: as §1, §2

[11] = tested on: S. aureus SA158 (tet resistant: tetK efflux); assay: microbe, parasite or virus in culture; conditions: Staphylococcus aureus, read-out: MICs SA158
Procedure: as §1, §2

[12] = tested on: E. coli EC155 (tet resistant: tetA efflux); assay: microbe, parasite or virus in culture; conditions: Escherichia coli; E. coli tet resistant: tetA (efflux); read-out: MICs EC155
Procedure: as §1, §2

[13] = tested on: K. pneumoniae KP153 (tet resistant: tetA efflux); assay: microbe, parasite or virus in culture; conditions: Klebsiella pneumoniae, read-out: MICs KP153
Procedure: as §1, §2

[14] = tested on: E. cloacae ATCC 13047 (EC108); assay: Minimum inhibitory concentration assay, EC108; conditions: Enterobacter cloacae, ATCC13047; E. cloacae ATCC 13047, wt; read-out: MICs EC108
Procedure: as §1, §2

[15] = tested on: E. faecalis ATCC 29212 (EF103); assay: Minimum inhibitory concentration assay, EF103; conditions: Enterococcus faecalis, ATCC29212, read-out: MICs EF103
Procedure: as §1, §2

SMILES	MIC [1] [µg/mL]	MIC [2] [µg/mL]	MIC [3] [µg/mL]	MIC [4] [µg/mL]	MIC [5] [µg/mL]	MIC [6] [µg/mL]	MIC [7] [µg/mL]	MIC [8] [µg/mL]	MIC [9] [µg/mL]	MIC [10] [µg/mL]	MIC [11] [µg/mL]	MIC [12] [µg/mL]	MIC [13] [µg/mL]	MIC [14] [µg/mL]	MIC [15] [µg/mL]
CCCCNCC(=O)Nc1cc(F)c2c(c1O)C(=O)C1=C(O)[C@]3(O)C(=O)C(C(N)=O)=C(O)[C@@H](N(C)C)[C@@H]3C[C@@H]1C2 [Compound 13]	≤ 0.0156	≤ 0.0156	0.5 (≈ 0.892 µM)	0.0625 (≈ 0.111 µM)	≤ 0.0156	0.25 (≈ 0.446 µM)	16 (≈ 28.5 µM)	≤ 0.0156	0.0625 (≈ 0.111 µM)	0.125 (≈ 0.223 µM)	0.25 (≈ 0.446 µM)	4 (≈ 7.14 µM)	2 (≈ 3.57 µM)	1 (≈ 1.78 µM)	≤ 0.0156
CC(C)NCC(=O)Nc1cc(F)c2c(c1O)C(=O)C1=C(O)[C@]3(O)C(=O)C(C(N)=O)=C(O)[C@@H](N(C)C)[C@@H]3C[C@@H]1C2 [Compound 16]	≤ 0.0156	0.25 (≈ 0.457 µM)	1 (≈ 1.83 µM)	0.0625 (≈ 0.114 µM)	≤ 0.0156	1 (≈ 1.83 µM)	16 (≈ 29.3 µM)	0.125 (≈ 0.229 µM)	0.25 (≈ 0.457 µM)	0.5 (≈ 0.915 µM)	0.5 (≈ 0.915 µM)	8 (≈ 14.6 µM)	4 (≈ 7.32 µM)	1 (≈ 1.83 µM)	0.0625 (≈ 0.114 µM)
CN(C)[C@@H]1C(O)=C(C(N)=O)C(=O)[C@@]2(O)C(O)=C3C(=O)c4c(O)c(NC(=O)CN5CC[C@H](O)C5)cc(F)c4C[C@H]3C[C@@H]12 [Compound 40]	0.0625 (≈ 0.109 µM)	1 (≈ 1.74 µM)	8 (≈ 13.9 µM)	1 (≈ 1.74 µM)	0.5 (≈ 0.87 µM)	8 (≈ 13.9 µM)	32 (≈ 55.7 µM)	1 (≈ 1.74 µM)	1 (≈ 1.74 µM)	4 (≈ 6.96 µM)	16 (≈ 27.8 µM)	> 32	32 (≈ 55.7 µM)	4 (≈ 6.96 µM)	1 (≈ 1.74 µM)
CN(C)[C@H]1CCN(CC(=O)Nc2cc(F)c3c(c2O)C(=O)C2=C(O)[C@]4(O)C(=O)C(C(N)=O)=C(O)[C@@H](N(C)C)[C@@H]4C[C@@H]2C3)C1 [Compound 38]	2 (≈ 3.32 µM)	8 (≈ 13.3 µM)	> 32	16 (≈ 26.6 µM)	8 (≈ 13.3 µM)	> 32	> 32	8 (≈ 13.3 µM)	16 (≈ 26.6 µM)	> 32	32 (≈ 53.2 µM)	> 32	> 32	> 32	8 (≈ 13.3 µM)
CCCNCC(=O)Nc1cc(F)c2c(c1O)C(=O)C1=C(O)[C@]3(O)C(=O)C(C(N)=O)=C(O)[C@@H](N(C)C)[C@@H]3C[C@@H]1C2 [Compound 12]	≤ 0.0156	≤ 0.0156	1 (≈ 1.83 µM)	0.0625 (≈ 0.114 µM)	≤ 0.0156	1 (≈ 1.83 µM)	16 (≈ 29.3 µM)	≤ 0.0156	0.125 (≈ 0.229 µM)	0.25 (≈ 0.457 µM)	0.5 (≈ 0.915 µM)	8 (≈ 14.6 µM)	4 (≈ 7.32 µM)	1 (≈ 1.83 µM)	≤ 0.0156
CN(CC(=O)Nc1cc(F)c2c(c1O)C(=O)C1=C(O)[C@]3(O)C(=O)C(C(N)=O)=C(O)[C@@H](N(C)C)[C@@H]3C[C@@H]1C2)C1CCCC1 [Compound 31]	0.25 (≈ 0.426 µM)	2 (≈ 3.41 µM)	4 (≈ 6.82 µM)	1 (≈ 1.7 µM)	0.25 (≈ 0.426 µM)	0.5 (≈ 0.852 µM)	> 32	1 (≈ 1.7 µM)	2 (≈ 3.41 µM)	2 (≈ 3.41 µM)	1 (≈ 1.7 µM)	8 (≈ 13.6 µM)	8 (≈ 13.6 µM)	8 (≈ 13.6 µM)	0.5 (≈ 0.852 µM)
CN(C)[C@@H]1C(O)=C(C(N)=O)C(=O)[C@@]2(O)C(O)=C3C(=O)c4c(O)c(NC(=O)CC5CC(F)C5)cc(F)c4C[C@H]3C[C@@H]12 (stereo partly drawn) [Compound 33]	≤ 0.0156	0.5 (≈ 0.89 µM)	4 (≈ 7.12 µM)	1 (≈ 1.78 µM)	0.125 (≈ 0.223 µM)	4 (≈ 7.12 µM)	> 32	0.25 (≈ 0.445 µM)	1 (≈ 1.78 µM)	2 (≈ 3.56 µM)	2 (≈ 3.56 µM)	> 32	> 32	16 (≈ 28.5 µM)	0.25 (≈ 0.445 µM)
